Source: patent US20240116897A1, “BENZOTHIAZOLE AND BENZIMIDAZOLE DERIVATIVES, PHARMACEUTICALLY ACCEPTABLE SALT THEREOF, PREPARATION METHOD THEREFOR, AND PHARMACEUTICAL COMPOSITION COMPRISING SAME AS ACTIVE INGREDIENT” (KOREA RESEARCH INSTITUTE OF CHEMICAL TECHNOLOGY, priority 2021, published 2024)
Read-outs that look alike come from different tables or passages of the source. One block for each molecule: values may come before it.

Key:
COLO32ODM cells = experiment: LDH cytotoxicity test, cancer cell line; assay type: cell-based, human; conditions: 48 hours
Experimental: (§3) LDH released is measured to determine whether a compound is toxic.
(§4) Thermo's Cat. No. 88953 LDH Cytotoxicity assay kit was used. 20,000 cells were seeded in a 96 well plate and treated with 100 μM and 500 μM compounds after 24 hours of culture. After 48 hours, transfer 50 μL of the compound-treated culture supernatant to a new 96-well plate, add 50 μL of substrate mix buffer provided in the kit, block light, and react at room temperature for 30 minutes. After adding 50 μL of Stop solution, the absorbance was measured at 490 nm using a microplate reader (Molecular Device, spectramax i3).

WI38 cells = conditions: human, 48 h
Experimental: as §3, §4

[1] = system: COLO32ODM tumor xenograft; experiment: In vivo mouse tumor xenograft, COLO32ODM; conditions: for tumor size compared to the control group: nude mice, 3 weeks
Experimental: (§1) The compounds of the present invention were administered to mouse tumor xenograft to measure tumor suppression in vivo test. BALB/C-nu female 5-week-old mice were introduced. COLO32ODM and SW480 cells, which are human colorectal cancer cells, were isolated from culture flasks using trypsin and prepared at a concentration of 1×10^8 cell/ml. It was mixed with Matrigel (Gibco, Cat. No. A14133-02) at a ratio of 1:1 and injected 100 μL subcutaneously into the dorsal side of 5-week-old mice. After 2 weeks, when the volume of the mouse tumor reached 100 mm^3, oral administration of the compound was started 5 times a week. (Day 0), After that, it was conducted for 3 weeks.
(§2) In the negative control group, 0.1% Carboxylmethyl cellulose and 0.2% tween 80 solution were administered instead of the compound according to the same administration route and administration frequency. 6 mice were used for each experimental group (FIG. 3). The size of the tumor was measured in the long axis (length, L) and the short axis (width, W) once every 3 days, and the tumor volume (mm^3) was calculated as (L×W×W)/2 thereby the average for each group was calculated. Statistical processing was performed using the GraphPad Prism6 program, and a p-value of less than 0.05 was considered significant.
A 5-week-old nude mouse whose thymus was removed and whose T cells were reduced and whose immune system was suppressed was introduced, and human colorectal cancer cell lines, COLO32ODM and SW480, were subcutaneously injected.

SIRT7 protein = biological target: T1, SIRT7 protein (Homo sapiens, UniProt Q9NRC8); experiment: SIRT Glo assay, inhibitory activity against Sirt7; assay type: biochemical; conditions: 10 μM compound
T1 construct: purchased SignalChem S41-30H
T1 sequence (Q9NRC8 1-400): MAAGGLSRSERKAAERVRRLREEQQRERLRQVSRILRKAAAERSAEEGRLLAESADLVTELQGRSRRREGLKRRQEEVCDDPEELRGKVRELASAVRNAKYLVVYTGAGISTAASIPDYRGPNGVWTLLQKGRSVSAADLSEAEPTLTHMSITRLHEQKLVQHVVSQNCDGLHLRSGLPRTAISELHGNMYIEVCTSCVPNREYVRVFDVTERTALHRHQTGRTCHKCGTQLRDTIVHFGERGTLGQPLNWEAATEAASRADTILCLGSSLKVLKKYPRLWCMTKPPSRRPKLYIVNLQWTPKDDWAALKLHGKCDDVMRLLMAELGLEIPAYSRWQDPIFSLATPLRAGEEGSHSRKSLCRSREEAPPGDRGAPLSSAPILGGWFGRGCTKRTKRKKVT
Procedure, shortened: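 Recombinant SIRT7 (20 ng per well) pre-incubated 30 min with compound in SIRT Glo buffer, then SIRT Glo substrate added for 1 h before luminescence reading. Background-subtracted signal expressed as % inhibition relative to no-compound control.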

SW480 tumor xenograft = experiment: In vivo mouse tumor xenograft, SW480; conditions: nude mice, oral 10 mpk, 20 mpk, 40 mpk, 3 weeks
Experimental: as §1
as §2, with “Dissolve the compound in 0.1% Carboxylmethyl cellulose (CMC) and 0.2% tween 80 solution at concentrations of 2 mg/ml, 4 mg/ml, and 8 mg/ml, and 100 ul was orally administered to achieve concentrations of 10 mpk, 20 mpk, and 40 mpk. In” for “In”, “Statistical processing was performed using the GraphPad Prism6 program, and a p-value of less than 0.05 was considered significant.” left out

inhibition at 10 µM (SIRT7 protein): 81%
SMILES: CCNC(=O)N1CCN(Cc2ccc(C(=O)Nc3nc4ccccc4s3)cc2)CC1 [Compound 1-37, 4-(4-(benzo[d]thiazol-2-ylcarbamoyl)benzyl)-N-ethylpiperazine-1-carboxamide]
cytotoxicity (LDH release) compared to the positive control that damaged all cell membranes (COLO32ODM cells; 100 μM): 62.1%
cytotoxicity (LDH release) compared to the positive control that damaged all cell membranes (COLO32ODM cells; 500 μM): 62.0%
cytotoxicity (LDH release) compared to the positive control that damaged all cell membranes (WI38 cells; 100 μM): 29.9%
cytotoxicity (LDH release) compared to the positive control that damaged all cell membranes (WI38 cells; 500 μM): 41.6%
tumor size compared to the control group ([1]; oral 10 mpk, 20 mpk, 40 mpk): reduced
dose dependence of tumor formation inhibitory effect ([1]; oral 10, 20, 40 mpk): concentration-dependent tumor formation inhibitory effect
tumor formation inhibitory effect ([1]; oral 40 mpk): most significant tumor formation inhibitory effect
tumor size compared to the control group (SW480 tumor xenograft): reduced

inhibition at 10 µM (SIRT7 protein): 100%
SMILES: CCNC(=O)N1CCC(=Cc2ccc(C(=O)Nc3nc4ccccc4s3)c(Cl)c2)CC1 [Compound 1-105, 4-(4-(benzo[d]thiazol-2-ylcarbamoyl)-3-chlorobenzylidene)-N-ethylpiperidine-1-carboxamide]
tumor size compared to the control group [1]: reduced

inhibition at 10 µM (SIRT7 protein): 99%
SMILES: O=C(Nc1nc2ccccc2s1)c1ccc(C=C2CCN(C(=O)Nc3ccccc3)CC2)cc1Cl [Compound 1-106, 4-(4-(benzo[d]thiazol-2-ylcarbamoyl)-3-chlorobenzylidene)-N-phenylpiperidine-1-carboxamide]
tumor size compared to the control group [1]: reduced

inhibition at 10 µM (SIRT7 protein): 34%
SMILES: O=C(Nc1nc2ccccc2s1)c1ccc(C=C2CCN(C(=O)Nc3ccc(C(F)(F)F)cc3)CC2)cc1Cl [Compound 1-107, 4-(4-(benzo[d]thiazol-2-ylcarbamoyl)-3-chlorobenzylidene)-N-(4-(trifluoromethyl)phenyl)piperidine-1-carboxamide]

inhibition at 10 µM (SIRT7 protein): 100%
SMILES: O=C(Nc1nc2ccccc2s1)c1ccc(C=C2CCN(C(=O)Nc3ccc(F)cc3)CC2)cc1Cl [Compound 1-108, 4-(4-(benzo[d]thiazol-2-ylcarbamoyl)-3-chlorobenzylidene)-N-(4-fluorophenyl)piperidine-1-carboxamide]
